Results reported in the NIST ThermoML archive (doi:10.1016/j.fluid.2008.09.004).
± gives the expanded uncertainty stated by the source.

Tests used:
[1] = xn = mol fraction of the nth substance listed; conditions: 318.15 K, 101 kPa, Liquid, Vibrating tube method
[2] = molar heat capacity at constant pressure; xn = mol fraction of the nth substance listed; conditions: 101 kPa, Liquid, Small sample (50 mg) DSC

CCCCn1cc[n+](C)c1.O=S(=O)([O-])C(F)(F)F [1-butyl-3-methylimidazolium trifluoromethanesulfonate] + CCO
mass density ([1]; x1 = 0.5923): 1205 ± 0.2 kg/m3 | mass density ([1]; x1 = 0.6898): 1229 ± 0.2 kg/m3 | mass density ([1]; x1 = 0.7868): 1248.5 ± 0.2 kg/m3 | mass density ([1]; x1 = 0.8756): 1263.8 ± 0.2 kg/m3 | mass density ([1]; x1 = 0.9283): 1271.8 ± 0.2 kg/m3 | molar heat capacity at constant pressure ([2]; 293.15 K, x1 = 0.0522): 128.2 ± 2 J/K/mol | molar heat capacity at constant pressure ([2]; 293.15 K, x1 = 0.0982): 143.3 ± 2.2 J/K/mol | molar heat capacity at constant pressure ([2]; 293.15 K, x1 = 0.1976): 175.3 ± 2.7 J/K/mol | molar heat capacity at constant pressure ([2]; 293.15 K, x1 = 0.2999): 207.9 ± 3.2 J/K/mol | molar heat capacity at constant pressure ([2]; 293.15 K, x1 = 0.3996): 237.9 ± 3.7 J/K/mol | molar heat capacity at constant pressure ([2]; 293.15 K, x1 = 0.4973): 267.2 ± 4.1 J/K/mol | molar heat capacity at constant pressure ([2]; 293.15 K, x1 = 0.5923): 295.7 ± 4.6 J/K/mol | molar heat capacity at constant pressure ([2]; 293.15 K, x1 = 0.6898): 326.5 ± 5.1 J/K/mol | molar heat capacity at constant pressure ([2]; 293.15 K, x1 = 0.7868): 355.5 ± 5.5 J/K/mol | molar heat capacity at constant pressure ([2]; 293.15 K, x1 = 0.8756): 382.4 ± 5.9 J/K/mol | molar heat capacity at constant pressure ([2]; 293.15 K, x1 = 0.9283): 399 ± 6.2 J/K/mol | molar heat capacity at constant pressure ([2]; 298.15 K, x1 = 0.0522): 130 ± 2 J/K/mol | molar heat capacity at constant pressure ([2]; 298.15 K, x1 = 0.0982): 144.9 ± 2.2 J/K/mol | molar heat capacity at constant pressure ([2]; 298.15 K, x1 = 0.1976): 176.8 ± 2.7 J/K/mol | molar heat capacity at constant pressure ([2]; 298.15 K, x1 = 0.2999): 209.2 ± 3.2 J/K/mol | molar heat capacity at constant pressure ([2]; 298.15 K, x1 = 0.3996): 239.4 ± 3.7 J/K/mol | molar heat capacity at constant pressure ([2]; 298.15 K, x1 = 0.4973): 268.9 ± 4.2 J/K/mol | molar heat capacity at constant pressure ([2]; 298.15 K, x1 = 0.5923): 297.3 ± 4.6 J/K/mol | molar heat capacity at constant pressure ([2]; 298.15 K, x1 = 0.6898): 328.2 ± 5.1 J/K/mol | molar heat capacity at constant pressure ([2]; 298.15 K, x1 = 0.7868): 357.6 ± 5.5 J/K/mol | molar heat capacity at constant pressure ([2]; 298.15 K, x1 = 0.8756): 384.5 ± 6 J/K/mol | molar heat capacity at constant pressure ([2]; 298.15 K, x1 = 0.9283): 401.2 ± 6.2 J/K/mol | molar heat capacity at constant pressure ([2]; 303.15 K, x1 = 0.0522): 131.8 ± 2 J/K/mol | molar heat capacity at constant pressure ([2]; 303.15 K, x1 = 0.0982): 146.4 ± 2.3 J/K/mol | molar heat capacity at constant pressure ([2]; 303.15 K, x1 = 0.1976): 178.3 ± 2.8 J/K/mol | molar heat capacity at constant pressure ([2]; 303.15 K, x1 = 0.2999): 210.6 ± 3.3 J/K/mol | molar heat capacity at constant pressure ([2]; 303.15 K, x1 = 0.3996): 240.9 ± 3.7 J/K/mol | molar heat capacity at constant pressure ([2]; 303.15 K, x1 = 0.4973): 270.7 ± 4.2 J/K/mol | molar heat capacity at constant pressure ([2]; 303.15 K, x1 = 0.5923): 299 ± 4.6 J/K/mol | molar heat capacity at constant pressure ([2]; 303.15 K, x1 = 0.6898): 330 ± 5.1 J/K/mol | molar heat capacity at constant pressure ([2]; 303.15 K, x1 = 0.7868): 359.9 ± 5.6 J/K/mol | molar heat capacity at constant pressure ([2]; 303.15 K, x1 = 0.8756): 386.8 ± 6 J/K/mol | molar heat capacity at constant pressure ([2]; 303.15 K, x1 = 0.9283): 403.7 ± 6.3 J/K/mol | molar heat capacity at constant pressure ([2]; 308.15 K, x1 = 0.0522): 133.8 ± 2.1 J/K/mol | molar heat capacity at constant pressure ([2]; 308.15 K, x1 = 0.0982): 148.2 ± 2.3 J/K/mol | molar heat capacity at constant pressure ([2]; 308.15 K, x1 = 0.1976): 180 ± 2.8 J/K/mol | molar heat capacity at constant pressure ([2]; 308.15 K, x1 = 0.2999): 212.1 ± 3.3 J/K/mol | molar heat capacity at constant pressure ([2]; 308.15 K, x1 = 0.3996): 242.6 ± 3.8 J/K/mol | molar heat capacity at constant pressure ([2]; 308.15 K, x1 = 0.4973): 272.6 ± 4.2 J/K/mol | molar heat capacity at constant pressure ([2]; 308.15 K, x1 = 0.5923): 301 ± 4.7 J/K/mol | molar heat capacity at constant pressure ([2]; 308.15 K, x1 = 0.6898): 332 ± 5.1 J/K/mol | molar heat capacity at constant pressure ([2]; 308.15 K, x1 = 0.7868): 362.3 ± 5.6 J/K/mol | molar heat capacity at constant pressure ([2]; 308.15 K, x1 = 0.8756): 389.3 ± 6 J/K/mol | molar heat capacity at constant pressure ([2]; 308.15 K, x1 = 0.9283): 406.3 ± 6.3 J/K/mol | molar heat capacity at constant pressure ([2]; 313.15 K, x1 = 0.0522): 135.8 ± 2.1 J/K/mol | molar heat capacity at constant pressure ([2]; 313.15 K, x1 = 0.0982): 150 ± 2.3 J/K/mol | molar heat capacity at constant pressure ([2]; 313.15 K, x1 = 0.1976): 181.7 ± 2.8 J/K/mol | molar heat capacity at constant pressure ([2]; 313.15 K, x1 = 0.2999): 213.7 ± 3.3 J/K/mol | molar heat capacity at constant pressure ([2]; 313.15 K, x1 = 0.3996): 244.3 ± 3.8 J/K/mol | molar heat capacity at constant pressure ([2]; 313.15 K, x1 = 0.4973): 274.6 ± 4.3 J/K/mol | molar heat capacity at constant pressure ([2]; 313.15 K, x1 = 0.5923): 303 ± 4.7 J/K/mol | molar heat capacity at constant pressure ([2]; 313.15 K, x1 = 0.6898): 334.1 ± 5.2 J/K/mol | molar heat capacity at constant pressure ([2]; 313.15 K, x1 = 0.7868): 364.8 ± 5.7 J/K/mol | molar heat capacity at constant pressure ([2]; 313.15 K, x1 = 0.8756): 391.9 ± 6.1 J/K/mol | molar heat capacity at constant pressure ([2]; 313.15 K, x1 = 0.9283): 409 ± 6.3 J/K/mol | molar heat capacity at constant pressure ([2]; 318.15 K, x1 = 0.0522): 138 ± 2.1 J/K/mol | molar heat capacity at constant pressure ([2]; 318.15 K, x1 = 0.0982): 152 ± 2.4 J/K/mol | molar heat capacity at constant pressure ([2]; 318.15 K, x1 = 0.1976): 183.6 ± 2.8 J/K/mol | molar heat capacity at constant pressure ([2]; 318.15 K, x1 = 0.2999): 215.4 ± 3.3 J/K/mol | molar heat capacity at constant pressure ([2]; 318.15 K, x1 = 0.3996): 246.2 ± 3.8 J/K/mol | molar heat capacity at constant pressure ([2]; 318.15 K, x1 = 0.4973): 276.8 ± 4.3 J/K/mol | molar heat capacity at constant pressure ([2]; 318.15 K, x1 = 0.5923): 305.1 ± 4.7 J/K/mol | molar heat capacity at constant pressure ([2]; 318.15 K, x1 = 0.6898): 336.4 ± 5.2 J/K/mol | molar heat capacity at constant pressure ([2]; 318.15 K, x1 = 0.7868): 367.5 ± 5.7 J/K/mol | molar heat capacity at constant pressure ([2]; 318.15 K, x1 = 0.8756): 394.6 ± 6.1 J/K/mol | molar heat capacity at constant pressure ([2]; 318.15 K, x1 = 0.9283): 411.9 ± 6.4 J/K/mol
